Source: the NIST ThermoML archive (doi:10.1016/j.jct.2016.01.026)

Experiment: osmotic coefficient (dimensionless); mn = molality of the nth substance listed, in mol/kg
Conditions: 323.15 K, 100 kPa, Liquid, Knauer K-7000 vapor pressure osmometer (VPO)

CCC[N+]1(C)CCCCC1.O=S(=O)([O-])C(F)(F)F [1-methyl-1-propylpiperidinium triflate] + CCCO
Conditions | osmotic coefficient
m1 = 0.0866 | 0.825
m1 = 0.1046 | 0.769
m1 = 0.1966 | 0.661
m1 = 0.2936 | 0.585
m1 = 0.3928 | 0.521
m1 = 0.5005 | 0.483
m1 = 0.6023 | 0.468
m1 = 0.7009 | 0.452
m1 = 0.8047 | 0.438
m1 = 1.008 | 0.418
m1 = 1.195 | 0.398
m1 = 1.422 | 0.379

CCC[N+]1(C)CCCCC1.O=S(=O)([O-])C(F)(F)F [1-methyl-1-propylpiperidinium triflate] + CCCCCO
Conditions | osmotic coefficient
m1 = 0.0415 | 0.757
m1 = 0.0616 | 0.593
m1 = 0.0823 | 0.542
m1 = 0.1025 | 0.521
m1 = 0.1211 | 0.502
m1 = 0.1427 | 0.48
m1 = 0.1632 | 0.472
m1 = 0.1816 | 0.465
m1 = 0.2018 | 0.451
m1 = 0.2209 | 0.441
m1 = 0.2407 | 0.431
m1 = 0.2643 | 0.418

CCC[N+]1(C)CCCCC1.O=S(=O)([O-])C(F)(F)F [1-methyl-1-propylpiperidinium triflate] + CC(C)O
Conditions | osmotic coefficient
m1 = 0.0801 | 0.897
m1 = 0.1937 | 0.743
m1 = 0.3155 | 0.645
m1 = 0.4021 | 0.587
m1 = 0.5062 | 0.545
m1 = 0.5964 | 0.516
m1 = 0.7001 | 0.491
m1 = 0.7943 | 0.466
m1 = 0.9894 | 0.443
m1 = 1.268 | 0.422

CCC[N+]1(C)CCCCC1.O=S(=O)([O-])C(F)(F)F [1-methyl-1-propylpiperidinium triflate] + CCCCO
Conditions | osmotic coefficient
m1 = 0.053 | 0.781
m1 = 0.0791 | 0.706
m1 = 0.0996 | 0.657
m1 = 0.1455 | 0.604
m1 = 0.2006 | 0.559
m1 = 0.25 | 0.519
m1 = 0.3019 | 0.491
m1 = 0.355 | 0.467
m1 = 0.4011 | 0.453
m1 = 0.4998 | 0.417
m1 = 0.5953 | 0.403
m1 = 0.7001 | 0.387
m1 = 0.78 | 0.379

CCC[N+]1(C)CCCCC1.O=S(=O)([O-])C(F)(F)F [1-methyl-1-propylpiperidinium triflate] + CCC(C)O
Conditions | osmotic coefficient
m1 = 0.0525 | 0.851
m1 = 0.081 | 0.769
m1 = 0.0996 | 0.701
m1 = 0.1561 | 0.608
m1 = 0.1983 | 0.572
m1 = 0.2451 | 0.528
m1 = 0.304 | 0.498
m1 = 0.3569 | 0.477
m1 = 0.4029 | 0.457
m1 = 0.498 | 0.432
m1 = 0.5936 | 0.419
m1 = 0.7108 | 0.405
